In ChEMBL document CHEMBL3045792, “Synthesis, antimicrobial activity, and molecular modeling of novel 4-(3-(4-benzylpiperazin-1-yl)propoxy)-7-methoxy-3-substituted phenyl-2H-chromen-2-one” (2013):
Activity calls are given as the source filed them. The calls are words filed in the database; no cut-off is given here.

Experiments:
Type in all cases: functional
Staphylococcus aureus [1] = assay: Antibacterial activity against Staphylococcus aureus assessed as growth inhibition at 600 ug/ml by NCCLS […] method; details: read-out: IZ
Bacillus pumilus [2] = assay: Antibacterial activity against Bacillus pumilus assessed as growth inhibition at 900 ug/ml by NCCLS […] method; details: for zone of inhibition at 900 µg/mL: read-out: IZ
Bacillus pumilus [3] = assay: Antibacterial activity against Bacillus pumilus assessed as growth inhibition at 600 ug/ml by NCCLS […] method; details: for zone of inhibition at 600 µg/mL: read-out: IZ
Priestia megaterium [4] = assay: Antibacterial activity against Bacillus megaterium assessed as growth inhibition at 900 ug/ml by NCCLS […] method; details: for zone of inhibition at 900 µg/mL: read-out: IZ
Priestia megaterium [5] = assay: Antibacterial activity against Bacillus megaterium assessed as growth inhibition at 600 ug/ml by NCCLS […] method; details: for zone of inhibition at 600 µg/mL: read-out: IZ
Bacillus subtilis [6] = assay: Antibacterial activity against Bacillus subtilis assessed as growth inhibition at 900 ug/ml by NCCLS […] method; details: read-out: IZ
Bacillus subtilis [7] = assay: Antibacterial activity against Bacillus subtilis assessed as growth inhibition at 600 ug/ml by NCCLS […] method; details: read-out: IZ
Klebsiella aerogenes [8] = assay: Antibacterial activity against Enterobacter aerogenes assessed as growth inhibition at 900 ug/ml by NCCLS […] method; details: for zone of inhibition at 900 µg/mL: read-out: IZ
Klebsiella aerogenes [9] = assay: Antibacterial activity against Enterobacter aerogenes assessed as growth inhibition at 600 ug/ml by NCCLS […] method; details: for zone of inhibition at 600 µg/mL: read-out: IZ
Klebsiella pneumoniae [10] = assay: Antibacterial activity against Klebsiella pneumoniae assessed as growth inhibition at 900 ug/ml by NCCLS […] method; details: read-out: IZ
Klebsiella pneumoniae [11] = assay: Antibacterial activity against Klebsiella pneumoniae assessed as growth inhibition at 600 ug/ml by NCCLS […] method; details: read-out: IZ
Proteus mirabilis [12] = assay: Antibacterial activity against Proteus mirabilis assessed as growth inhibition at 900 ug/ml by NCCLS […] method; details: read-out: IZ
Proteus mirabilis [13] = assay: Antibacterial activity against Proteus mirabilis assessed as growth inhibition at 600 ug/ml by NCCLS […] method; details: read-out: IZ
Proteus vulgaris [14] = assay: Antibacterial activity against Proteus vulgaris assessed as growth inhibition at 900 ug/ml by NCCLS […] method; details: read-out: IZ
Proteus vulgaris [15] = assay: Antibacterial activity against Proteus vulgaris assessed as growth inhibition at 600 ug/ml by NCCLS […] method; details: read-out: IZ
Escherichia coli [16] = assay: Antibacterial activity against Escherichia coli assessed as growth inhibition at 900 ug/ml by NCCLS […] method; details: read-out: IZ
Fusarium oxysporum [17] = assay: Antifungal activity against Fusarium oxysporum assessed as growth inhibition at 900 ug/ml; details: for zone of inhibition at 900 µg/mL: read-out: IZ
Fusarium oxysporum [18] = assay: Antifungal activity against Fusarium oxysporum assessed as growth inhibition at 600 ug/ml; details: for zone of inhibition at 600 µg/mL: read-out: IZ
Fusarium oxysporum [19] = assay: Antifungal activity against Fusarium oxysporum assessed as growth inhibition at 300 ug/ml; details: for zone of inhibition at 300 µg/mL: read-out: IZ
Candida albicans [20] = assay: Antifungal activity against Candida albicans assessed as growth inhibition at 1200 ug/ml; details: for zone of inhibition at 1200 µg/mL: read-out: IZ
Candida albicans [21] = assay: Antifungal activity against Candida albicans assessed as growth inhibition at 900 ug/ml; details: for zone of inhibition at 900 µg/mL: read-out: IZ
Candida albicans [22] = assay: Antifungal activity against Candida albicans assessed as growth inhibition at 600 ug/ml; details: for zone of inhibition at 600 µg/mL: read-out: IZ
Candida albicans [23] = assay: Antifungal activity against Candida albicans assessed as growth inhibition at 300 ug/ml; details: for zone of inhibition at 300 µg/mL: read-out: IZ
Streptococcus pyogenes [24] = assay: Antibacterial activity against Streptococcus pyogenes assessed as growth inhibition at 600 ug/ml by NCCLS […] method; details: read-out: IZ
Streptococcus pyogenes [25] = assay: Antibacterial activity against Streptococcus pyogenes assessed as growth inhibition at 900 ug/ml by NCCLS […] method; details: read-out: IZ
Staphylococcus aureus [26] = assay: Antibacterial activity against Staphylococcus aureus assessed as growth inhibition at 900 ug/ml by NCCLS […] method; details: read-out: IZ
Escherichia coli [27] = assay: Antibacterial activity against Escherichia coli assessed as growth inhibition at 600 ug/ml by NCCLS […] method; details: read-out: IZ
Colletotrichum falcatum [28] = assay: Antifungal activity against Glomerella tucumanensis assessed as growth inhibition at 1200 ug/ml; details: for zone of inhibition at 1200 µg/mL: read-out: IZ
Colletotrichum falcatum [29] = assay: Antifungal activity against Glomerella tucumanensis assessed as growth inhibition at 900 ug/ml; details: for zone of inhibition at 900 µg/mL: read-out: IZ
Colletotrichum falcatum [30] = assay: Antifungal activity against Glomerella tucumanensis assessed as growth inhibition at 600 ug/ml; details: for zone of inhibition at 600 µg/mL: read-out: IZ
Colletotrichum falcatum [31] = assay: Antifungal activity against Glomerella tucumanensis assessed as growth inhibition at 300 ug/ml; details: for zone of inhibition at 300 µg/mL: read-out: IZ
Exserohilum rostratum [32] = assay: Antifungal activity against Setosphaeria rostrata assessed as growth inhibition at 1200 ug/ml; details: read-out: IZ
Exserohilum rostratum [33] = assay: Antifungal activity against Setosphaeria rostrata assessed as growth inhibition at 900 ug/ml; details: read-out: IZ
Exserohilum rostratum [34] = assay: Antifungal activity against Setosphaeria rostrata assessed as growth inhibition at 600 ug/ml; details: read-out: IZ
Exserohilum rostratum [35] = assay: Antifungal activity against Setosphaeria rostrata assessed as growth inhibition at 300 ug/ml; details: read-out: IZ
Fusarium oxysporum [36] = assay: Antifungal activity against Fusarium oxysporum assessed as growth inhibition at 1200 ug/ml; details: for zone of inhibition at 1200 µg/mL: read-out: IZ

Row | Structure (SMILES) | zone of inhibition at 600 µg/mL (Staphylococcus aureus [1]) [mm] | zone of inhibition at 900 µg/mL (Bacillus pumilus [2]) [mm] | zone of inhibition at 600 µg/mL (Bacillus pumilus [3]) [mm] | zone of inhibition at 900 µg/mL (Bacillus subtilis [6]) [mm] | zone of inhibition at 600 µg/mL (Bacillus subtilis [7]) [mm] | zone of inhibition at 900 µg/mL (Klebsiella pneumoniae [10]) [mm] | zone of inhibition at 600 µg/mL (Klebsiella pneumoniae [11]) [mm] | zone of inhibition at 900 µg/mL (Proteus mirabilis [12]) [mm] | zone of inhibition at 600 µg/mL (Proteus mirabilis [13]) [mm] | zone of inhibition at 900 µg/mL (Proteus vulgaris [14]) [mm] | zone of inhibition at 600 µg/mL (Proteus vulgaris [15]) [mm] | zone of inhibition at 900 µg/mL (Escherichia coli [16]) [mm] | zone of inhibition at 600 µg/mL (Streptococcus pyogenes [24]) [mm] | zone of inhibition at 900 µg/mL (Streptococcus pyogenes [25]) [mm] | zone of inhibition at 900 µg/mL (Staphylococcus aureus [26]) [mm] | zone of inhibition at 600 µg/mL (Escherichia coli [27]) [mm] | zone of inhibition at 1200 µg/mL (Exserohilum rostratum [32]) [mm] | zone of inhibition at 900 µg/mL (Exserohilum rostratum [33]) [mm] | zone of inhibition at 600 µg/mL (Exserohilum rostratum [34]) [mm] | zone of inhibition at 300 µg/mL (Exserohilum rostratum [35]) [mm] | further results
1 | COc1ccc2c(OCCCN3CCN(Cc4ccc(F)cc4F)CC3)c(-c3ccccc3)c(=O)oc2c1 | 3.41 | 10.7 | 5.02 | 10.7 | 5.3 | 6.34 | 3.24 | 4.29 | 2.65 | 8.02 | 4.2 | 4.8 | 5.3 | 10.2 | 6.48 | 2.6 | 26.8 | 14.2 | 7.68 | 5.02 | zone of inhibition at 900 µg/mL (Priestia megaterium [4]): 8.98 mm; zone of inhibition at 600 µg/mL (Priestia megaterium [5]): 4.48 mm; growth inhibition (GI) (Klebsiella aerogenes [8]): inactive; growth inhibition (GI) (Klebsiella aerogenes [9]): inactive; zone of inhibition at 900 µg/mL (Fusarium oxysporum [17]): 16.9 mm; zone of inhibition at 600 µg/mL (Fusarium oxysporum [18]): 8.56 mm; zone of inhibition at 300 µg/mL (Fusarium oxysporum [19]): 4.2 mm; zone of inhibition at 1200 µg/mL (Candida albicans [20]): 18.2 mm; zone of inhibition at 900 µg/mL (Candida albicans [21]): 9.6 mm; zone of inhibition at 600 µg/mL (Candida albicans [22]): 4.5 mm; zone of inhibition at 300 µg/mL (Candida albicans [23]): 2.25 mm; zone of inhibition at 1200 µg/mL (Colletotrichum falcatum [28]): 25.9 mm; zone of inhibition at 900 µg/mL (Colletotrichum falcatum [29]): 13.6 mm; zone of inhibition at 600 µg/mL (Colletotrichum falcatum [30]): 5.56 mm; zone of inhibition at 300 µg/mL (Colletotrichum falcatum [31]): 3.24 mm; zone of inhibition at 1200 µg/mL (Fusarium oxysporum [36]): 28.1 mm
2 | COc1ccc2c(OCCCN3CCN(Cc4ccccc4)CC3)c(-c3ccccc3)c(=O)oc2c1 | 7.89 | 4.21 | 2.27 | 12 | 6.56 | 4.98 | 2.56 | 11.3 | 5.55 | 12.8 | 6.54 | 5.76 | 6.54 | 11.9 | 11.2 | 2.98 | 24.6 | 15.8 | 8.56 | 4.25 | growth inhibition (GI) (Priestia megaterium [4]): inactive; growth inhibition (GI) (Priestia megaterium [5]): inactive; zone of inhibition at 900 µg/mL (Klebsiella aerogenes [8]): 7.53 mm; zone of inhibition at 600 µg/mL (Klebsiella aerogenes [9]): 3.8 mm; growth inhibition (GI) (Fusarium oxysporum [17]): inactive; growth inhibition (GI) (Fusarium oxysporum [18]): inactive; growth inhibition (GI) (Fusarium oxysporum [19]): inactive; zone of inhibition at 1200 µg/mL (Candida albicans [20]): 22.3 mm; zone of inhibition at 900 µg/mL (Candida albicans [21]): 12 mm; zone of inhibition at 600 µg/mL (Candida albicans [22]): 5.43 mm; zone of inhibition at 300 µg/mL (Candida albicans [23]): 2.87 mm; growth inhibition (GI) (Colletotrichum falcatum [28]): inactive; growth inhibition (GI) (Colletotrichum falcatum [29]): inactive; growth inhibition (GI) (Colletotrichum falcatum [30]): inactive; growth inhibition (GI) (Colletotrichum falcatum [31]): inactive; growth inhibition (GI) (Fusarium oxysporum [36]): inactive
3 | CCCOc1ccc(CN2CCN(CCCOc3c(-c4ccccc4)c(=O)oc4cc(OC)ccc34)CC2)cc1 | 1.55 | 6.8 | 3.2 | 4.25 | 2.5 | 4.25 | 2.04 | 2.48 | 1.02 | 8.09 | 4.2 | 3.49 | 3.25 | 6.84 | 3.25 | 1.25 | 28.6 | 14.6 | 6.02 | 3.25 | zone of inhibition at 900 µg/mL (Priestia megaterium [4]): 8.4 mm; zone of inhibition at 600 µg/mL (Priestia megaterium [5]): 4.2 mm; zone of inhibition at 900 µg/mL (Klebsiella aerogenes [8]): 4.02 mm; zone of inhibition at 600 µg/mL (Klebsiella aerogenes [9]): 2 mm; zone of inhibition at 900 µg/mL (Fusarium oxysporum [17]): 12.1 mm; zone of inhibition at 600 µg/mL (Fusarium oxysporum [18]): 4.92 mm; zone of inhibition at 300 µg/mL (Fusarium oxysporum [19]): 2.48 mm; growth inhibition (GI) (Candida albicans [20]): inactive; growth inhibition (GI) (Candida albicans [21]): inactive; growth inhibition (GI) (Candida albicans [22]): inactive; growth inhibition (GI) (Candida albicans [23]): inactive; zone of inhibition at 1200 µg/mL (Colletotrichum falcatum [28]): 32.5 mm; zone of inhibition at 900 µg/mL (Colletotrichum falcatum [29]): 16.8 mm; zone of inhibition at 600 µg/mL (Colletotrichum falcatum [30]): 7.6 mm; zone of inhibition at 300 µg/mL (Colletotrichum falcatum [31]): 4.49 mm; zone of inhibition at 1200 µg/mL (Fusarium oxysporum [36]): 19.8 mm
4 | COc1ccc2c(OCCCN3CCN(Cc4ccc(Br)cc4)CC3)c(-c3ccccc3)c(=O)oc2c1 | 4.25 | – | – | 4.16 | 2.08 | 6.24 | 2.89 | 5.02 | 4.28 | 10.2 | 5.02 | 4.01 | 6.25 | 13.1 | 8 | 2 | 31.3 | 15.6 | 8.12 | 4.56 | growth inhibition (GI) (Bacillus pumilus [2]): inactive; growth inhibition (GI) (Bacillus pumilus [3]): inactive; zone of inhibition at 900 µg/mL (Priestia megaterium [4]): 12.1 mm; zone of inhibition at 600 µg/mL (Priestia megaterium [5]): 6.25 mm; zone of inhibition at 900 µg/mL (Klebsiella aerogenes [8]): 6.8 mm; zone of inhibition at 600 µg/mL (Klebsiella aerogenes [9]): 3.25 mm; zone of inhibition at 900 µg/mL (Fusarium oxysporum [17]): 14.2 mm; zone of inhibition at 600 µg/mL (Fusarium oxysporum [18]): 6.15 mm; zone of inhibition at 300 µg/mL (Fusarium oxysporum [19]): 3.56 mm; zone of inhibition at 1200 µg/mL (Candida albicans [20]): 19.6 mm; zone of inhibition at 900 µg/mL (Candida albicans [21]): 10.1 mm; zone of inhibition at 600 µg/mL (Candida albicans [22]): 5.84 mm; zone of inhibition at 300 µg/mL (Candida albicans [23]): 3.02 mm; zone of inhibition at 1200 µg/mL (Colletotrichum falcatum [28]): 33.8 mm; zone of inhibition at 900 µg/mL (Colletotrichum falcatum [29]): 19.4 mm; zone of inhibition at 600 µg/mL (Colletotrichum falcatum [30]): 9.76 mm; zone of inhibition at 300 µg/mL (Colletotrichum falcatum [31]): 5.62 mm; zone of inhibition at 1200 µg/mL (Fusarium oxysporum [36]): 29.4 mm
